Assay results published in the NIST ThermoML archive (doi:10.1021/je1004092).

How the values were obtained:
[1] = molar heat capacity at constant pressure; details: 101.33 kPa, Vacuum adiabatic calorimetry
[2] = Crystal; Adiabatic calorimetry
[3] = Molar enthalpy of transition or fusion; details: Crystal; Adiabatic calorimetry

O=C(N[C@@H](Cc1ccccc1)C(=O)O)OCc1ccccc1 [((benzyloxy)carbonyl)-L-phenylalanine]
[1]
Details | molar heat capacity at constant pressure [J/K/mol]
79.13 K, Crystal | 109.2
81.17 K, Crystal | 111.4
84.32 K, Crystal | 114.7
87.26 K, Crystal | 119.7
90.2 K, Crystal | 124.4
93.15 K, Crystal | 128
96.1 K, Crystal | 130.2
99.05 K, Crystal | 132.6
103.16 K, Crystal | 135.7
107.22 K, Crystal | 140.4
110.14 K, Crystal | 143.8
113.08 K, Crystal | 146.3
116.03 K, Crystal | 149.3
119 K, Crystal | 150.1
121.92 K, Crystal | 156.4
124.86 K, Crystal | 158.7
127.83 K, Crystal | 160.7
130.81 K, Crystal | 161.9
133.81 K, Crystal | 165.1
136.78 K, Crystal | 168.9
139.76 K, Crystal | 171.3
142.78 K, Crystal | 172.5
145.75 K, Crystal | 176.2
148.7 K, Crystal | 181.2
152.53 K, Crystal | 181.4
156.3 K, Crystal | 185.2
159.2 K, Crystal | 189.8
162.16 K, Crystal | 191.9
165.09 K, Crystal | 194.2
168.09 K, Crystal | 197.5
171.13 K, Crystal | 198.8
174.16 K, Crystal | 201.1
177.16 K, Crystal | 206.1
180.14 K, Crystal | 209.9
183.11 K, Crystal | 211.4
186.05 K, Crystal | 211.8
188.97 K, Crystal | 218.1
191.95 K, Crystal | 219.3
194.98 K, Crystal | 223
198 K, Crystal | 226.3
201 K, Crystal | 229.2
204.65 K, Crystal | 233.5
208.28 K, Crystal | 236.2
211.23 K, Crystal | 238.9
214.17 K, Crystal | 242
217.09 K, Crystal | 248.7
220 K, Crystal | 250.5
222.89 K, Crystal | 252.5
225.77 K, Crystal | 254.9
228.72 K, Crystal | 256.4
231.73 K, Crystal | 258
234.73 K, Crystal | 260.1
237.77 K, Crystal | 264.5
240.78 K, Crystal | 266.6
244.33 K, Crystal | 268.1
247.89 K, Crystal | 270.2
250.89 K, Crystal | 273.1
253.88 K, Crystal | 277.4
256.87 K, Crystal | 280.9
259.83 K, Crystal | 282.4
262.79 K, Crystal | 286.2
265.74 K, Crystal | 290.4
268.67 K, Crystal | 292.7
271.58 K, Crystal | 297.9
274.49 K, Crystal | 302.3
277.38 K, Crystal | 301.8
280.25 K, Crystal | 307.3
283.12 K, Crystal | 314.7
286.09 K, Crystal | 319.9
289.05 K, Crystal | 323.8
291.98 K, Crystal | 326.7
295.01 K, Crystal | 330.1
298.06 K, Crystal | 333
301.11 K, Crystal | 336.5
304.15 K, Crystal | 339.5
307.19 K, Crystal | 340.6
310.22 K, Crystal | 343.9
313.24 K, Crystal | 348.3
316.26 K, Crystal | 351.4
319.27 K, Crystal | 353.7
322.27 K, Crystal | 358.3
325.27 K, Crystal | 362.5
328.25 K, Crystal | 367.6
331.24 K, Crystal | 371.4
334.21 K, Crystal | 375.1
337.17 K, Crystal | 380.6
340.13 K, Crystal | 389.8
343.07 K, Crystal | 396.6
345.97 K, Crystal | 418.3
348.88 K, Crystal | 508.8
361.43 K, Liquid | 549.6
364.56 K, Liquid | 551.9
367.7 K, Liquid | 552.7
370.83 K, Liquid | 553.6
373.95 K, Liquid | 554.9
377.05 K, Liquid | 555.6
380.13 K, Liquid | 557.1
383.21 K, Liquid | 558.5
386.33 K, Liquid | 560.8
389.43 K, Liquid | 562.4
392.55 K, Liquid | 563.6
395.55 K, Liquid | 564.8

Details | Molar enthalpy of transition or fusion [kJ/mol] | Triple point temperature [K]
[2] | – | 359.48
[3] | 31.79 | –
